# In ChEMBL document CHEMBL5390279, “Hydrolytic Activity of Mitochondrial F1FO-ATP Synthase as a Target for Myocardial Ischemia-Reperfusion Injury: Discovery and In Vitro and In Vivo Evaluation of Novel Inhibitors” (J Med Chem, 2023):
# The source made the active and inactive calls. No cut-off for these calls is given here.
# What was measured:
# [1] = Inhibition of mouse heart mitochondrial F0F1-ATP synthase hydrolytic activity incubated for 10 mins by microplate reader analysis; assay type: mitochondria, Mitochondria
# [2] = species: Mus musculus; assay: Inhibition of mouse heart mitochondrial F0F1-ATP synthase hydrolytic activity at 200 uM incubated for 10 mins by microplate reader analysis relative to control; details: Mitochondria
# [3] = species: Mus musculus; assay: Inhibition of mouse heart mitochondrial F0F1-ATP synthase hydrolytic activity at 200 uM incubated for 10 mins by microplate reader analysis; details: Mitochondria
# [4] = system: H9c2; assay: Induction of mitochondrial membrane potential loss in rat H9c2 cells assessed as increase in fluorescence intensity at 10 to 100 uM in presence of rotenone by TMRM dye based assay; assay type: cell-based; details: dose 10-100 µM
# [5] = system: H9c2; assay: Cytotoxicity against rat H9c2 cells assessed as reduction in cell viability at 50 to 100 uM incubated for 24 hrs by MTT assay; assay type: toxicity, cell-based; details: h9c2, 24 h, dose 50-100 µM
# [6] = system: H9c2; assay: Cytotoxicity against rat H9c2 cells assessed as reduction in cell viability at 10 to 100 uM incubated for 24 hrs by MTT assay; assay type: toxicity, cell-based; details: h9c2, 24 h, dose 10-100 µM
# [7] = system: H9c2; assay: Induction of mitochondrial membrane potential loss in rat H9c2 cells assessed as increase in fluorescence intensity at 3 uM in presence of rotenone by TMRM dye based assay; assay type: cell-based
# [8] = system: H9c2; assay: Induction of mitochondrial membrane potential loss in rat H9c2 cells assessed as increase in fluorescence intensity at 3 uM by TMRM dye based assay; assay type: cell-based
# [9] = system: H9c2; assay: Induction of mitochondrial membrane potential loss in rat H9c2 cells assessed as increase in fluorescence intensity at 10 uM in presence of rotenone by TMRM dye based assay; assay type: cell-based
# [10] = system: H9c2; assay: Induction of mitochondrial membrane potential loss in rat H9c2 cells assessed as increase in fluorescence intensity at 10 uM by TMRM dye based assay; assay type: cell-based
# [11] = system: H9c2; assay: Induction of mitochondrial membrane potential loss in rat H9c2 cells assessed as increase in fluorescence intensity at 50 uM in presence of rotenone by TMRM dye based assay; assay type: cell-based
# [12] = system: H9c2; assay: Induction of mitochondrial membrane potential loss in rat H9c2 cells assessed as increase in fluorescence intensity at 100 uM by TMRM dye based assay; assay type: cell-based
# [13] = system: H9c2; assay: Cytotoxicity against rat H9c2 cells assessed as reduction in cell survival at 100 uM incubated for 24 hrs by MTT assay; assay type: toxicity, cell-based; details: h9c2, 24 h
# [14] = system: Mus musculus; assay: Cardioprotective activity against cardiac ischemia/reperfusion induced C57BL/6J mouse model assessed as reduction in cardiac infarct size at 5 mg/kg, iv prior to 5 mins of myocardial ischemia and 2 hrs of reperfusion (Rvb= 45.4 +/- 1.8 %); assay type: functional; set-up: scale not given: the % may be the effect or the level left; details: time 125 min, 2.083 h
# [15] = system: H9c2; assay: Induction of mitochondrial membrane potential loss in rat H9c2 cells assessed as increase in fluorescence intensity at 100 uM in presence of rotenone by TMRM dye based assay; assay type: cell-based
# [16] = system: H9c2; assay: Cytotoxicity against rat H9c2 cells assessed as reduction in cell viability at 100 uM incubated for 24 hrs by MTT assay; assay type: toxicity, cell-based; details: h9c2, 24 h
# [17] = system: H9c2; assay: Induction of mitochondrial membrane potential loss in rat H9c2 cells assessed as increase in fluorescence intensity at 50 uM by TMRM dye based assay; assay type: cell-based
# [18] = system: H9c2; assay: Cytotoxicity against rat H9c2 cells assessed as reduction in cell survival at 50 uM incubated for 24 hrs by MTT assay; assay type: toxicity, cell-based; details: h9c2, 24 h
# [19] = species: Mus musculus; assay: Effect on mPTP opening in C57BL6 mouse heart mitochondria assessed as number of calcium pulses by measuring green-5N fluorescence intensity at 10 to 1000 uM by calcium retention capacity assay; details: dose 10-1000 µM
# [20] = species: Mus musculus; assay: Effect on mPTP opening in C57BL6 mouse heart mitochondria assessed as number of calcium pulses by measuring green-5N fluorescence intensity at 10 to 1000 uM in presence of cyclosporin A by calcium retention capacity assay; details: dose 10-1000 µM
# [21] = system: Mus musculus; assay: Cardioprotective activity against cardiac ischemia/reperfusion induced C57BL/6J mouse model assessed as reduction in cardiac infarct size at 3.5 mg/kg, iv prior to 5 mins of myocardial ischemia and 2 hrs of reperfusion (Rvb= 45.4 +/- 1.8 %); assay type: functional; set-up: scale not given: the % may be the effect or the level left; details: time 125 min, 2.083 h
# [22] = system: H9c2; assay: Cytotoxicity against rat H9c2 cells assessed as reduction in cell viability at 50 uM incubated for 24 hrs by MTT assay; assay type: toxicity, cell-based; details: h9c2, 24 h
# [23] = system: H9c2; assay: Cytotoxicity against rat H9c2 cells assessed as reduction in cell survival at 10 to 50 uM incubated for 24 hrs by MTT assay; assay type: toxicity, cell-based; details: h9c2, 24 h, dose 10-50 µM
# [24] = system: H9c2; assay: Induction of mitochondrial membrane potential loss in rat H9c2 cells assessed as increase in fluorescence intensity at 50 to 100 uM in presence of rotenone by TMRM dye based assay; assay type: cell-based; details: dose 50-100 µM
# [25] = system: H9c2; assay: Induction of mitochondrial membrane potential loss in rat H9c2 cells assessed as increase in fluorescence intensity at 0.1 to 100 uM by TMRM dye based assay; assay type: cell-based; details: dose 0.1-100 µM
# [26] = system: H9c2; assay: Cytotoxicity against rat H9c2 cells assessed as reduction in cell survival at 0.1 to 100 uM incubated for 24 hrs by MTT assay; assay type: toxicity, cell-based; details: h9c2, 24 h, dose 0.1-100 µM
# [27] = system: H9c2; assay: Cytotoxicity against rat H9c2 cells assessed as reduction in cell survival at 10 to 100 uM incubated for 24 hrs by MTT assay; assay type: toxicity, cell-based; details: h9c2, 24 h, dose 10-100 µM
# [28] = system: Mus musculus; assay: Cardioprotective activity against cardiac ischemia/reperfusion induced C57BL/6J mouse model assessed as reduction in cardiac infarct size at 5 mg/kg, iv measured after 5 mins of myocardial ischemia and 2 hrs of reperfusion (Rvb= 45 +/- 2.2 %); assay type: functional; set-up: scale not given: the % may be the effect or the level left; details: time 125 min, 2.083 h
# [29] = system: Mus musculus; assay: Cardioprotective activity against cardiac ischemia/reperfusion induced C57BL/6J mouse model assessed as reduction in cardiac infarct size at 5 mg/kg, iv measured after 25 mins of myocardial ischemia and 2 hrs of reperfusion (Rvb= 47.8 +/- 3.4 %); assay type: functional; set-up: scale not given: the % may be the effect or the level left; details: time 145 min, 2.417 h
# [30] = system: Mus musculus; assay: (§1) Cardioprotective activity against cardiac ischemia/reperfusion induced C57BL/6J mouse model assessed as increase in ATP level at 3.5 mg/kg, iv preincubated under ischemic condition for 30 mins followed by compound addition for 5 mins and subsequent incubation under reperfusion for 10 mins; assay type: functional, organism-based; details: time 15.0 min
# [31] = system: Mus musculus; assay: as §1, with “increase in Akt phosphorylation at 3.5” for “increase in ATP level at 3.5”, “10 mins by Western blot analysis” for “10 mins”; assay type: functional, organism-based; details: time 15.0 min
# [32] = system: Mus musculus; assay: as §1, with “increase in ERK1/2 phosphorylation at 3.5” for “increase in ATP level at 3.5”, “10 mins by Western blot analysis” for “10 mins”; assay type: functional, organism-based; details: time 15.0 min
# [33] = system: Mus musculus; assay: as §1, with “increase in GSK3beta phosphorylation at S9 fraction at 3.5” for “increase in ATP level at 3.5”, “10 mins by Western blot analysis” for “10 mins”; assay type: functional, organism-based; details: time 15.0 min
# [34] = system: Mus musculus; assay: as §1, with “assessed as effect on Akt level at” for “assessed as increase in ATP level at”, “10 mins by Western blot analysis” for “10 mins”; assay type: functional, organism-based; details: time 15.0 min
# [35] = system: Mus musculus; assay: as §1, with “assessed as effect on ERK1/2 level at” for “assessed as increase in ATP level at”, “10 mins by Western blot analysis” for “10 mins”; assay type: functional, organism-based; details: time 15.0 min
# [36] = system: Mus musculus; assay: as §1, with “assessed as effect on GSK3beta level at” for “assessed as increase in ATP level at”, “10 mins by Western blot analysis” for “10 mins”; assay type: functional, organism-based; details: time 15.0 min
# [37] = system: Mus musculus; assay: as §1, with “increase in Bcl-XL expression at 3.5” for “increase in ATP level at 3.5”, “10 mins by Western blot analysis” for “10 mins”; assay type: functional, organism-based; details: time 15.0 min
# [38] = system: Mus musculus; assay: as §1, with “increase in Bax expression at 3.5” for “increase in ATP level at 3.5”, “10 mins by Western blot analysis” for “10 mins”; assay type: functional, organism-based; details: time 15.0 min
# [39] = system: Mus musculus; assay: as §1, with “increase in cleaved caspase-3 expression at 3.5” for “increase in ATP level at 3.5”, “10 mins by Western blot analysis” for “10 mins”; assay type: functional, organism-based; details: time 15.0 min
smiles,measurement,setting,value
Oc1ccc(/C=C/c2c3c(cc4c2[C@H](c2cc(O)cc(O)c2)[C@@H](c2ccc(O)cc2)O4)O[C@H](c2ccc(O)cc2)[C@H]3c2cc(O)cc(O)c2)cc1,IC50,[1],162 µM
same,inhibition,[2],50%
Oc1ccc(/C=C/c2cc(O)cc(O)c2)cc1 [RESVERATROL],IC50,[1],65.6 µM
COc1ccc(Cn2nc(-c3cccc(F)c3)c3cc(Nc4ccc(N5CCN(C)CC5)cc4)nc(N4CCN(C)CC4)c32)cc1,IC50,[1],164 µM
same,inhibition,[3],Active
same,Activity,[4],Active
same,Activity,[5],Toxic
same,Activity,[6],Non-Toxic
CC[C@@H]1/C=C/C=C/C[C@H](C)[C@@H](O)[C@](C)(O)C(=O)[C@H](C)[C@@H](O)[C@H](C)C(=O)[C@H](C)[C@@H](O)[C@H](C)/C=C/C(=O)O[C@H]2[C@@H](C)[C@@H](CC1)O[C@@]1(CC[C@@H](C)[C@@H](C[C@H](C)O)O1)[C@@H]2C,IC50,[1],18.5 µM
same,Activity,[7],Active
same,Activity,[8],inactive
same,Activity,[9],inactive
same,Activity,[10],inactive
Oc1ccc(/C=C/c2cc(O)cc3c2[C@H](c2cc(O)cc(O)c2)[C@@H](c2ccc(O)cc2)O3)cc1,IC50,[1],756 µM
O=C(Oc1cc(S(=O)(=O)c2ccccc2)ccc1[N+](=O)[O-])c1ccc(Cl)cc1,IC50,[1],347 µM
same,Activity,[11],inactive
same,Activity,[12],inactive
same,Activity,[13],Non-Toxic
same,Activity,[14],39.6%
COc1ccc(Cn2nc(-c3cccc(F)c3)c3cc(Nc4ccc(N5CCN(C)CC5)cc4)nc(N4CCOCC4)c32)cc1,IC50,[1],1980 µM
same,inhibition,[3],Active
COc1ccc(Cn2nc(-c3ccccc3)c3cc(Nc4ccc(N5CCN(C)CC5)cc4)nc(N4CCN(C)CC4)c32)cc1,IC50,[1],85.5 µM
same,Activity,[15],Active
same,Activity,[11],Active
same,Activity,[9],inactive
same,Activity,[16],Toxic
same,Activity,[17],inactive
same,Activity,[10],inactive
same,Activity,[13],Toxic
same,Activity,[18],Non-Toxic
same,Activity,[19],inactive
same,Activity,[20],inactive
same,Activity,[21],34.8%
COc1ccc(Cn2nc(-c3ccccc3)c3cc(Cl)nc(N4CCNCC4)c32)cc1,IC50,[1],151 µM
same,inhibition,[2],50%
same,Activity,[15],Active
same,Activity,[11],Active
same,Activity,[9],inactive
same,Activity,[16],Toxic
same,Activity,[22],Non-Toxic
same,Activity,[10],inactive
same,Activity,[13],Toxic
same,Activity,[23],Non-Toxic
same,Activity,[19],inactive
same,Activity,[20],inactive
O=c1c(O)c(-c2ccc(O)c(O)c2)oc2cc(O)cc(O)c12 [QUERCETIN],IC50,[1],128 µM
COc1ccc(Cn2nc(-c3ccccc3)c3cc(Nc4ccc(N5CCN(C)CC5)cc4)nc(N4CCNCC4)c32)cc1,IC50,[1],107 µM
same,Activity,[15],Active
same,Activity,[11],Active
same,Activity,[9],inactive
same,Activity,[16],Toxic
same,Activity,[17],inactive
same,Activity,[10],inactive
same,Activity,[18],Non-Toxic
same,Activity,[19],inactive
same,Activity,[20],inactive
same,Activity,[21],33.4%
COc1ccc(Cn2nc(-c3ccccc3)c3cc(Nc4ccc(N5CCN(C)CC5)cc4)nc(N4CCOCC4)c32)cc1,IC50,[1],98.5 µM
same,inhibition,[3],Active
same,Activity,[24],Active
same,Activity,[25],inactive
same,Activity,[26],Non-Toxic
same,Activity,[27],Non-Toxic
same,Activity,[21],25.6%
same,Activity,[28],23.1%
same,Activity,[29],40.4%
same,Activity,[30],Active
same,Activity,[31],Active
same,Activity,[32],Active
same,Activity,[33],Active
same,Activity,[34],Active
same,Activity,[35],Active
same,Activity,[36],Active
same,Activity,[37],Active
same,Activity,[38],Active
same,Activity,[39],Active
COc1cc2oc(-c3ccc(O)cc3O)c(C=O)c2c(O)c1CC=C(C)C,IC50,[1],303 µM
